# Measurements reported in patent publication US20230390265A1, “IRAK4 Inhibitors and Topical Uses Thereof” (Dermira, Inc., priority 2020, published 2023).
# Entries after “also recorded” stand apart in the source; their conditions may differ.
# System: TNFα protein expression
# Assay: Skin resident immune cell assay (sRICA), LPS-stimulated human skin, TNFα protein
# Type: cell-based
# Conditions: positive control, applied topically
# Description: The anti-inflammatory activity of the IRAK4/TrkA inhibitors was determined in a skin resident immune cell assay (sRICA). In this model, human surgical skin waste was cultured in a transwell system, with the dermis in contact with cell culture media and the stratum corneum exposed to air. To perform the assay, each human skin sample was defatted and dermatomed to 750 μm. Next, 8 mm punch biopsies were obtained and placed in a membrane transwell. The biopsies were prepared with a barrier ring to contain the formulation and prevent leakage of the formulation. The transwells were inserted into culture wells with complete media, and a cocktail of cytokines and antibodies and/or inflammatory stimuli were added to promote skin resident immune cell polarization and/or elicitation of a specific inflammatory response. The transwells were treated with LPS as a positive control, a vehicle as a negative control, and various dual IRAK/TrkA inhibitors. TNFα protein expression was measured and the mean TNFα protein level in the LPS treated samples was set to 100%.
# The Compounds were formulated at 80% saturated solubility. […]
# Except for the 0.5% Compound 1/NAG6 formulations, all Round 2 formulations were manufactured at 80% saturation. […] Conditioned cell media was collected and assessed for expression of inflammatory proteins after 48 hours of exposure to LPS stimulation.
smiles,measurement,value
CCC(=O)O[C@]1(C(=O)CCl)[C@@H](C)C[C@H]2[C@@H]3CCC4=CC(=O)C=C[C@]4(C)[C@@]3(F)[C@@H](O)C[C@@]21C [Clobetasol],Effect on LPS-induced TNFα production / inflammation,significantly reduced inflammation back to baseline levels; also recorded: completely inhibited TNFα induction
